Patent US8507411B2, “Neoglycorandomization and digitoxin analogs” (priority 2004, dated 2013)
Where two headings read alike, the source gives them in different places.

Experiments:
Na+/K+-ATPase = Na+/K+-ATPase (Cricetulus griseus, UniProt A0A8C2N4Z0); assay: Non-radioactive rubidium ion uptake assay, CHO-K1 cells; type: cell-based, hamster; conditions: read-out: Na+/K+-ATPase Inhibition IC50
Description: Na/K-ATPase Assays. Inhibition of Na^+/K^+-ATPase on HEK-293 cells and CHO-K1 cells by the library hits was determined by Aurora Biomed, Inc. using a high-throughput non-radioactive rubidium ion uptake assay. Experiments were conducted in duplicate using three different concentrations. Within each experiment, percent inhibition values at the three concentrations were expressed as the percent reduction of the maximum absorption signal observed for a 0 nM control. IC50 values were determined using the following formula: IC50=[(50−low %)/(high %−low %)]×(high conc.−low conc.)+low conc.
To assess how these structural modifications impact the ability of library members to inhibit Na^+/K^+-ATPases, a fundamental activity of cardiac glycosides (Paula, S., et al., (2005) Biochemistry 44, 498-510), library hits 5β, 15β, 23β, 27β, 33β, 40β, and digitoxin (1) were submitted to a non-radioactive rubidium uptake assay to gauge Na^+/K^+-ATPase inhibition in both […] human embryonic kidney cells and CHO-K1 hamster ovary cells (Gill, S. et al., (2004) ASSAY and Drug Development Technologies 2, 535-542).

NmuMG = assay: cells; type: cell-based, mouse; conditions: read-out: IC50, NmuMG
Procedure, shortened: (§1)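 Plated cells received compound dilutions after 1 h attachment and sat 72 h at 37 °C, 5% CO2. Serum was washed off with PBS before calcein AM staining, since serum esterases interfere. Four-parameter fits with variable Hill slope gave IC50s.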

Hep3B = assay: High-throughput calcein AM cytotoxicity assay, Hep3B; type: cell-based, human; conditions: Hep 3B cells, read-out: IC50, Hep 3B
Excerpt: (§2) Standard errors are depicted with error bars.

Du145 = assay: High-throughput calcein AM cytotoxicity assay, Du145; type: cell-based, human; conditions: read-out: IC50, Du145
Excerpt: as §2

[1] = test system: nine human cancer cell lines and a mouse mammary normal epithelial control line; assay: High-throughput calcein AM cytotoxicity assay, whole cell line panel
Excerpt: In the assay, live cells were distinguished by the presence of a ubiquitous intracellular enzymatic activity which converts the non-fluorescent cell-permeable molecule calcein AM to the intensely fluorescent molecule calcein, which is retained within live cells. The IC50 value for each library member represents at least six replicates of dose-response experiments conducted over five concentrations using two-fold dilutions. […] Standard errors are depicted with error bars. Numerical values and corresponding error values can be found in Table 4. Du145: […]; MCF7: human breast carcinoma; HCT-116: human colon carcinoma, Hep3B: human liver carcinoma; SF-268: human CNS glioblastoma; SK-OV-3: human ovary adenocarcinoma; NCI-H460: human lung carcinoma; A549: human lung adenocarcinoma; NCI/ADR-RES: human breast carcinoma; NmuMG: mouse mammary normal epithelial.
Cell Culture: All cell lines except NmuMG were maintained in RPMI 1640 medium from InVitrogen (Cat No. 11875-085) supplemented with 10% w/v fetal bovine serum (FBS) from ICN (Cat No. 2916154) and penicillin-streptomycin (PS) (100 U/mL and 100 μg/mL) from InVitrogen (Cat No. 15140-122). NmuMG cells were maintained in DMEM medium from InVitrogen (Cat No. 11965-084) supplemented with 10% w/v fetal bovine serum (FBS) from ICN (Cat No. 2916154), 10 μg/ml insulin (InVitrogen Cat No 12585-014), and penicillin-streptomycin (PS) (100 U/mL and 100 μg/mL) from InVitrogen (Cat No. 15140-122). Cells were harvested by trypsinization using 0.25% w/v trypsin and 0.1% w/v EDTA from InVitrogen (Cat No. 15-050-057) and then counted in a hemocytometer in duplicate with better than 10% agreement in field counts. Cells were plated at a cell density of 10,000-15,000 cells/well of each Corning Costar 96-well black tissue culture treated microtiter plate (Fisher Cat No. 07-200-627). Cells were grown for 1 h at 37° C., with 5% CO2 in a humidified incubator to allow cell attachment to occur before compound addition.
Library Member Handling and Preparation for Cytotoxicity Assays: Library members were stored at −20° C. under dessicating conditions before the assay. Library member stocks (100×) were prepared in Corning Costar polypropylene 96-well V-bottom polypropylene microtiter plates (Fisher Cat No. 07-200-695). Five serial 1:2 dilutions were made with anhydrous DMSO at 100× the final concentration used in the assay.
Library Member Addition: The library member-containing plates were diluted 1:10 with complete cell culture media. The 10× stocks (10 μL) were added to the attached cells using a Biomek FX liquid handler (Beckman-Coulter). Library member stocks (10 μL) were added to 90 μL of cells in each plate to insure full mixing of stocks with culture media using a Beckman FX liquid handler with 96-well head.
Determination of Cytotoxicity: Cells were incubated with the library members for 72 h before fluorescence reading. Test plates were removed from the incubator and washed 1× in sterile PBS to remove serum containing calcium esterases. Calcein AM reagent (30 μL, […]) was added and the cells were incubated for 30 min at 37° C. Plates were read for emission using a fluorescein filter (excitation 485 nm, emission 535 nm).
IC50 Calculation: For each library member, at least six dose response experiments were conducted. […] To calculate IC50, percent inhibitions were plotted as a function of log [concentration] and then fit to a four-parameter logistic model that allowed for a variable Hill slope using XLfit 4.1.
Cytotoxicity Assays. All cell lines except NmuMG were maintained in RPMI 1640 medium supplemented with 10% w/v fetal bovine serum (FBS) and penicillin-streptomycin (PS) (100 U/mL and 100 μg/mL).

NCI/ADR-RES = assay: cells; type: cell-based, human
Procedure, shortened: as §1

SF-268 = assay: cells; type: cell-based, human
Procedure, shortened: as §1

SK-OV-3 = assay: cells; type: cell-based, human
Procedure, shortened: as §1

[2] = NmuMG mouse mammary normal epithelial control line
[3] = NCI/ADR-RES cells, read-out: IC50, NCI/ADR-RES
[4] = SF-268 cells, read-out: IC50, SF-268
[5] = SK-OV-3 cells, read-out: IC50, SK-OV-3

| Compound | IC50 (Na+/K+-ATPase) [nM] | IC50 (NmuMG; [2]) [nM] | IC50 (Hep3B) [nM] | IC50 (Du145; Du145 cells) [nM] | IC50 ([1]; range over cell lines) [nM] | IC50 (NCI/ADR-RES; [3]) [nM] | IC50 (SF-268; [4]) [nM] | IC50 (SK-OV-3; [5]) [nM] | cytotoxicity (in words) ([1]; cell line panel, 72 h, calcein AM) | IC50 (NCI/ADR-RES; NCI/ADR-RES, 72 h, calcein AM, read-out: IC50) [nM] | IC50 (NmuMG; Mus musculus) [nM] | IC50 (Hep3B; Homo sapiens, Hep3B) [nM] | IC50 (Du145; Homo sapiens, DU-145, Du145 cells) [nM] | IC50 ([1]; Homo sapiens, read-out: average IC50) [nM] | IC50 (NCI/ADR-RES; Homo sapiens, NCI/ADR-RES, read-out: IC50, NCI/ADR-RES) [nM] | IC50 (SF-268; Homo sapiens, SF-268, read-out: IC50, SF-268) [nM] | IC50 (SK-OV-3; Homo sapiens, SK-OV-3, read-out: IC50, SK-OV-3) [nM] |
| --- | --- | --- | --- | --- | --- | --- | --- | --- | --- | --- | --- | --- | --- | --- | --- | --- | --- |
| CON([C@H]1CC[C@@]2(C)[C@H](CC[C@@H]3[C@@H]2CC[C@]2(C)[C@@H](C4=CC(=O)OC4)CC[C@]32O)C1)[C@H]1OC[C@H](O)[C@H](O)[C@@H]1O [5β, L-riboside] | 270000 | 31 | 59 | 300 | 18 to 59 | 32 | 230 | 45 | – | – | – | – | – | – | – | – | – |
| CON([C@H]1CC[C@@]2(C)[C@H](CC[C@@H]3[C@@H]2CC[C@]2(C)[C@@H](C4=CC(=O)OC4)CC[C@]32O)C1)[C@H]1OC[C@H](O)[C@@H](O)[C@@H]1O [23β, L-xyloside] | > 500000 | 57 | 500 | 620 | – | 138 | 490 | 220 | significantly more potent than digitoxin against some cell lines | – | – | – | – | – | – | – | – |
| CON([C@H]1CC[C@@]2(C)[C@H](CC[C@@H]3[C@@H]2CC[C@]2(C)[C@@H](C4=CC(=O)OC4)CC[C@]32O)C1)[C@@H]1O[C@H](CO)[C@@H](O)[C@H](O)[C@@H]1O [27β, D-mannoside] | > 300000 | 1000 | 400 | 1300 | – | – | 2200 | 800 | – | 100 ± 10 | – | – | – | – | – | – | – |
| C[C@H]1O[C@@H](O[C@H]2[C@@H](O)C[C@H](O[C@H]3[C@@H](O)C[C@H](O[C@H]4CC[C@@]5(C)[C@H](CC[C@@H]6[C@@H]5CC[C@]5(C)[C@@H](C7=CC(=O)OC7)CC[C@]65O)C4)O[C@@H]3C)O[C@@H]2C)C[C@H](O)[C@@H]1O [digitoxin] | – | – | – | – | – | – | – | – | – | – | > 25000 | 220 | 260 | ~440 | 220 | 1500 | 700 |
